Data on 11 molecules can be found in patent US7217532B2, “Methods for detecting DNA damage and screening for cancer therapeutics” (The Wistar Institute of Anatomy and Biology, priority 2000, dated 2007).

Experiment [1] relates to 53Bp1 foci in U2OS cells. Description: 53Bp1 foci formation in cells treated with DNA damaging agents, by immunofluorescence. Particulars: 0.2 mM etoposide; 1 mM hydroxyurea for 1 to 25 hours.
In experiment [2] the test system is 53Bp1 foci in U2OS cells. Description: Effect of wortmannin or caffeine on ionizing radiation-induced 53Bp1 foci, by immunofluorescent microscopy. Particulars: 20 μM wortmannin, 1 Gy ionizing radiation, at 30 minutes. Type of experiment: cell-based, human.
The subject of experiment [3] is ionizing radiation-induced foci in U2OS cells. Description: Localization of HA-tagged 53Bp1 deletion mutants to ionizing radiation-induced foci in U2OS cells. Type of experiment: cell-based, human. As to conditions: HA-tagged proteins expressed in U2OS cells, immunofluorescence after ionizing radiation. The text has this: Stably transfected U2OS cell lines were created by transfecting the plasmid pSV2 [Chehab, N. H. et al, 1999 Proc. Natl. Acad. Sci., USA, 96:13777–13782] containing various N-terminal hemaglutinin (HA) tagged versions of 53Bp1. HA53Bp1 is the full-length protein bearing the HA tag on its N terminus. HA53Bp1ΔBRCT is similar to HA53Bp1 with amino acids 1713 to 1973 (the BRCT domains) of SEQ ID NO: 2 deleted therefrom. HA53Bp1C312 contains only the C-terminal 312 amino acids of 53Bp1, which include the nuclear localization signal (i.e., amino acids 1662 to 1701 of SEQ ID NO: 2 and the BRCT domain (amino acids 1702–1973 of SEQ ID NO: 2). The U2OS cells on cover slips were transiently transfected with the selected plasmid using the calcium phosphate method. Positively transfected colonies were pooled after selecting with neomycin. Expression was allowed to occur for 30 hours and then cells were treated, fixed, stained, and visualized as described below.
The following experiments were performed to identify the minimal focus-targeting (FT) domain of the relatively large (1972 amino acids) 53Bp1 protein [SEQ ID NO: 2]. The FT domain is the portion of the protein sequence required for targeting to ionizing radiation-induced foci. The FT domain participates in the mechanism of 53Bp1 relocalization. In addition, fragments of 53Bp1 that retain the ability to form ionizing radiation-induced foci act as dominant negative mutants by competing with endogenous 53Bp1 for localization to the IR-induced 53Bp1-binding sites.
A series of 53Bp1 deletion mutants was generated and expressed as HA-tagged proteins in U2OS cells. These cells were examined by immuno-fluorescence for their intracellular localization in response to ionizing radiation, as described in Examples 1 and 2. Nuclear localization is considered to be a prerequisite for targeting of 53Bp1 to ionizing radiation-induced foci. Therefore, all the mutants were constructed so that they retained the NLS of 53Bp1.

`NC(=O)NO` [HU, hydroxyurea]: in the experiment on 53Bp1 foci in U2OS cells [1], the “53Bp1-containing foci formation in treated cells” value was “do not form”.

`COC[C@H]1OC(=O)c2coc3c2[C@@]1(C)C1=C(C3=O)[C@@H]2CCC(=O)[C@@]2(C)C[C@H]1OC(C)=O` [wortmannin]: the “reduction of percentage of cells containing 53Bp1 ionizing radiation-induced foci” value in the experiment on 53Bp1 foci in U2OS cells [2] is on record as around 50%.

With “AA residues 1–1053 and 1220–1972: 53Bp1 deletion mutant, deletion of residues 1054–1219 of SEQ ID NO: 2, HA-tagged”, in experiment [3], the “Ionizing Radiation-Induced Foci Localization” value is listed as “Yes”.

Take “AA residues 1–1053 and 1411–1972: 53Bp1 deletion mutant, deletion of residues 1054–1410 of SEQ ID NO: 2, HA-tagged”: in experiment [3], the “Ionizing Radiation-Induced Foci Localization” value is recorded as “No”.

For “AA residues 1–1711: 53Bp1 deletion mutant, deletion of AA residues 1712–1972 of SEQ ID NO: 2, HA-tagged”, in experiment [3], the “Ionizing Radiation-Induced Foci Localization” value is reported as “Yes”.

Regarding “full-length: full-length 53Bp1, AA residues 1–1972 of SEQ ID NO: 2, HA-tagged”, the “Ionizing Radiation-Induced Foci Localization” value in experiment [3] is listed as “Yes”.

B1: AA residues 1–34 and 1220–1711: 53Bp1 deletion mutant, deletion of residues 35–1219 and 1712–1972 of SEQ ID NO: 2, HA-tagged (protein)
chain: MDPTGSQLDSDFSQQDTPCLIIEDSQPESQVLEDQGEEEFDMPQPPHGHVLHRHMRTIREVRTLVTRVITDVYYVDGTEVERKVTEETEEPIVECQECETEVSPSQTGGSSGDLGDISSFSSKASSLHRTSSGTSLSAMHSSGSSGKGAGPLRGKTSGTEPADFALPSSRGGPGKLSPRKGVSQTGTPVCEEDGDAGLGIRQGGKAPVTPRGRGRRGRPPSRTTGTRETAVPGPLGIEDISPNLSPDDKSFSRVVPRVPDSTRRTDVGAGALRRSDSPEIPFQAAAGPSDGLDASSPGNSFVGLRVVAKWSSNGYFYSGKITRDVGAGKYKLLFDDGYECDVLGKDILLCDPIPLDTEVTALSEDEYFSAGVVKGHRKESGELYYSIEKEGQRKWYKRMAVILSLEQGNRLREQYGLGPYEAVTPLTKAADISLDNLVEGKRKRRSNVSSPATPTASSSSSTTPTRKITESPRASMGVLSGKRKLITSEEERSPAKRGRKSATVKPGAVGAGEFVSPCESGDNTGE
modifications: HA tag; human 53Bp1
On to B1, for which, in experiment [3], the “Ionizing Radiation-Induced Foci Localization” value was “Yes”.

B2: AA residues 1–34 and 1411–1711: 53Bp1 deletion mutant, deletion of residues 35–1410 and 1712–1972 of SEQ ID NO: 2, HA-tagged (protein)
chain: MDPTGSQLDSDFSQQDTPCLIIEDSQPESQVLEDTRETAVPGPLGIEDISPNLSPDDKSFSRVVPRVPDSTRRTDVGAGALRRSDSPEIPFQAAAGPSDGLDASSPGNSFVGLRVVAKWSSNGYFYSGKITRDVGAGKYKLLFDDGYECDVLGKDILLCDPIPLDTEVTALSEDEYFSAGVVKGHRKESGELYYSIEKEGQRKWYKRMAVILSLEQGNRLREQYGLGPYEAVTPLTKAADISLDNLVEGKRKRRSNVSSPATPTASSSSSTTPTRKITESPRASMGVLSGKRKLITSEEERSPAKRGRKSATVKPGAVGAGEFVSPCESGDNTGE
modifications: HA tag; human 53Bp1
Consider B2, for which the “Ionizing Radiation-Induced Foci Localization” value in experiment [3] is “No”.

B3: AA residues 1661–1972: 53Bp1 deletion mutant, deletion of residues 1–1660 of SEQ ID NO: 2, HA-tagged (protein)
chain: MGVLSGKRKLITSEEERSPAKRGRKSATVKPGAVGAGEFVSPCESGDNTGEPSALEEQRGPLPLNKTLFLGYAFLLTMATTSDKLASRSKLPDGPTGSSEEEEEFLEIPPFNKQYTESQLRAGAGYILEDFNEAQCNTAYQCLLIADQHCRTRKYFLCLASGIPCVSHVWVHDSCHANQLQNYRNYLLPAGYSLEEQRILDWQPRENPFQNLKVLLVSDQQQNFLELWSEILMTGGAASVKQHHSSAHNKDIALGVFDVVVTDPSCPASVLKCAEALQLPVVSQEWVIQCLIVGERIGFKQHPKYKHDYVSH
modifications: HA tag; human 53Bp1
For B3, in experiment [3], the “Ionizing Radiation-Induced Foci Localization” value is “No”.

B4: AA residues 1–34 and 1047–1972: 53Bp1 deletion mutant, deletion of residues 35–1046 of SEQ ID NO: 2, HA-tagged (protein)
chain: MDPTGSQLDSDFSQQDTPCLIIEDSQPESQVLEDEARSEDPPTTPIRGNLLHFPSSQGEEEKEKLEGDHTIRQSQQPMKPISPVKDPVSPASQKMVIQGPSSPQGEAMVTDVLEDQKEGRSTNKENPSKALIERPSQNNIGIQTMECSLRVPETVSAATQTIKNVCEQGTSTVDQNFGKQDATVQTERGSGEKPVSAPGDDTESLHSQGEEEFDMPQPPHGHVLHRHMRTIREVRTLVTRVITDVYYVDGTEVERKVTEETEEPIVECQECETEVSPSQTGGSSGDLGDISSFSSKASSLHRTSSGTSLSAMHSSGSSGKGAGPLRGKTSGTEPADFALPSSRGGPGKLSPRKGVSQTGTPVCEEDGDAGLGIRQGGKAPVTPRGRGRRGRPPSRTTGTRETAVPGPLGIEDISPNLSPDDKSFSRVVPRVPDSTRRTDVGAGALRRSDSPEIPFQAAAGPSDGLDASSPGNSFVGLRVVAKWSSNGYFYSGKITRDVGAGKYKLLFDDGYECDVLGKDILLCDPIPLDTEVTALSEDEYFSAGVVKGHRKESGELYYSIEKEGQRKWYKRMAVILSLEQGNRLREQYGLGPYEAVTPLTKAADISLDNLVEGKRKRRSNVSSPATPTASSSSSTTPTRKITESPRASMGVLSGKRKLITSEEERSPAKRGRKSATVKPGAVGAGEFVSPCESGDNTGEPSALEEQRGPLPLNKTLFLGYAFLLTMATTSDKLASRSKLPDGPTGSSEEEEEFLEIPPFNKQYTESQLRAGAGYILEDFNEAQCNTAYQCLLIADQHCRTRKYFLCLASGIPCVSHVWVHDSCHANQLQNYRNYLLPAGYSLEEQRILDWQPRENPFQNLKVLLVSDQQQNFLELWSEILMTGGAASVKQHHSSAHNKDIALGVFDVVVTDPSCPASVLKCAEALQLPVVSQEWVIQCLIVGERIGFKQHPKYKHDYVSH
modifications: HA tag; human 53Bp1
Regarding B4, the “Ionizing Radiation-Induced Foci Localization” value in experiment [3] is recorded as “Yes”.

B5: AA residues 1–34 and 1047–1711: 53Bp1 deletion mutant, deletion of residues 35–1046 and 1712–1972 of SEQ ID NO: 2, HA-tagged (protein)
chain: MDPTGSQLDSDFSQQDTPCLIIEDSQPESQVLEDEARSEDPPTTPIRGNLLHFPSSQGEEEKEKLEGDHTIRQSQQPMKPISPVKDPVSPASQKMVIQGPSSPQGEAMVTDVLEDQKEGRSTNKENPSKALIERPSQNNIGIQTMECSLRVPETVSAATQTIKNVCEQGTSTVDQNFGKQDATVQTERGSGEKPVSAPGDDTESLHSQGEEEFDMPQPPHGHVLHRHMRTIREVRTLVTRVITDVYYVDGTEVERKVTEETEEPIVECQECETEVSPSQTGGSSGDLGDISSFSSKASSLHRTSSGTSLSAMHSSGSSGKGAGPLRGKTSGTEPADFALPSSRGGPGKLSPRKGVSQTGTPVCEEDGDAGLGIRQGGKAPVTPRGRGRRGRPPSRTTGTRETAVPGPLGIEDISPNLSPDDKSFSRVVPRVPDSTRRTDVGAGALRRSDSPEIPFQAAAGPSDGLDASSPGNSFVGLRVVAKWSSNGYFYSGKITRDVGAGKYKLLFDDGYECDVLGKDILLCDPIPLDTEVTALSEDEYFSAGVVKGHRKESGELYYSIEKEGQRKWYKRMAVILSLEQGNRLREQYGLGPYEAVTPLTKAADISLDNLVEGKRKRRSNVSSPATPTASSSSSTTPTRKITESPRASMGVLSGKRKLITSEEERSPAKRGRKSATVKPGAVGAGEFVSPCESGDNTGE
modifications: HA tag; human 53Bp1
For B5, the “Ionizing Radiation-Induced Foci Localization” value in experiment [3] is given as “Yes”.
